Assays:
Botrytis cinerea [1] = experiment: Detached bean leaf bioassay, fungal control; assay type: in vivo; details: 200 ppm on detached bean leaf; 100 minus percent necrotic area, three days after inoculation
Experimental: Detached Bean Leaf Bioassay
Compound solution: Compound solutions were prepared by diluting compound stock solutions (1.0% w/v compound in DMSO) to 200 ppm with 0.01% w/v Triton X-100.
Spore solution preparation: Botrytis cinerea spores were taken from 6-week-old cultures grown at 22 C on full strength potato dextrous agar (PDA) plates and harvested in 1:16 frozen orange juice concentrate:water. Botrytis cinerea spore solutions were prepared by diluting spore cultures to 5×10^4 spores/mL with 1:16 frozen orange juice concentrate:water.
Plant material: Middle trifoliate leaves of greenhouse grown Phaseolus vulgaris (Bush bean cv. Blue Lake 274) were excised and placed on a plastic grid above a tray containing moist towels.
Treatment method: One half of the adaxial surface of the leaf was treated with the compound solution (100:L) using a 3 cm Bacti Cell Spreader. A blank consisted of 0.01% w/v Triton X-100. A commercial fungicide control (200 ppm diluted with water) consisted of Scala. After the solutions dried, the trays containing the leaves were covered and held one day in a growth chamber (22 C). The adaxial surfaces of the leaves were then inoculated with 5–60:L droplets of Botrytis cinerea spore solution.
Fungal control rating: Three days after inoculation with Botrytis, the percent necrotic area under the inoculation droplet was determined. Since the areas under the blank (0.01% w/v Triton X-100) were 100% infected, fungal control was expressed as 100 minus the percent necrotic area, and thus 0% infected is 100% fungal control (n=3 leaves/compound, 5 inoculation droplets/leaf, Table 2).

Monilinia laxa = experiment: Contact evaluation (microtiter plate fungal growth); assay type: cell-based
Experimental: (§1) Compound solution: Contact evaluations were conducted to determine the anti-fungal activity of each compound against Botrytis cinerea, Sclerotinia sclerotiorum, Pythium aphanidermatum, Rhizoctonia solani, Cercospora arachidicola, Mycosphaerella fijiensis, and Monilinia laxa. Five milligrams of each compound were dissolved in 0.5 milliliter of DMSO for a compound stock solution of 1.0% w/v. Compound stock solutions were serial diluted with DMSO to 20, 10, and 2 ppm final well concentration.
(§2) Fungi preparation: Botrytis cinerea spores were taken from 6-week-old cultures grown at 22 C on full strength potato dextrous agar (PDA) plates. Sclerotinia sclerotiorum, Pythium aphanidermatum, Rhizoctonia solani, and Monilinia laxa mycelia were taken from 4- to 10-day-old shake flask cultures grown at room temperature on full strength potato dextrous broth (PDB). Cercospora arachidicola mycelia were taken from 10- to 14-day-old shake flask cultures grown at room temperature on a full strength PDB amended with peanut oil. Mycosphaerella fijiensis mycelia were taken from 10- to 14-day-old shake flask cultures grown at room temperature on V8 juice broth. Sclerotinia sclerotiorum, Pythium aphanidermatum, Rhizoctonia solani, Cercospora arachidicola, and Mycosphaerella fijiensis mycelia (0.4 g mycelia) were blended for 45 seconds in 20 mL sterile de-ionized water. Monilinia laxa mycelia (1 g mycelia) was blended for 45 seconds in 30 mL of sterile de-ionized water. Botrytis cinerea spores were diluted with quarter strength PDB to 1×10^5 spores/mL final well concentration. All mycelia were diluted in water (1:5 mycelia:water) before distributing into the wells.
(§3) Microtiter plate preparation: Compound solution (10:L), quarter strength PDB (900:L) and fungi preparation (100:L) were sequentially distributed into 48-well microtiter plates (n=3 replications/compound/rate). A blank consisted of quarter strength PDB and fungi preparation. Commercial fungicide controls (100 ppm diluted with water) consisted of Scala for Botrytis cinerea, Dithane F-45 for Mycosphaerella fijiensis, and Benlate for Sclerotinia sclerotiorum, Pythium aphanidermatum, Rhizoctonia solani, Cercospora arachidicola, and Monilinia laxa. Plates were shaken in a circular rotator at room temperature for 20 minutes, then incubated at 25C for 24 to 72 hours, depending on the pathogen.
(§4) Fungal control ratings: Fungal growth in wells containing the compounds were compared to the positive control and fungal inhibition was rated as full, partial, or none. Final readings were the average of the three wells (Table 1).

Pythium aphanidermatum = experiment: as above; assay type: cell-based
Experimental: as §1, §2, §3, §4

Mycosphaerella fijiensis = experiment: as above; assay type: cell-based
Experimental: as §1, §2, §3, §4

Rhizoctonia solani = experiment: as above; assay type: cell-based; details: Rhizoctinia solani
Experimental: as §1, §2, §3, §4

Cercospora arachidicola = experiment: as above; assay type: cell-based
Experimental: as §1, §2, §3, §4

Botrytis cinerea [2] = experiment: as above; assay type: cell-based
Experimental: as §1, §2, §3, §4

Sclerotinia sclerotiorum = experiment: as above; assay type: cell-based; details: Sclerotinia sclerotionum
Experimental: Contact Evaluation. Compound solution: Contact evaluations were conducted to determine the anti-fungal activity of each compound against Botrytis cinerea, Sclerotinia sclerotiorum, Pythium aphanidermatum, Rhizoctonia solani, Cercospora arachidicola, Mycosphaerella fijiensis, and Monilinia laxa. Five milligrams of each compound were dissolved in 0.5 milliliter of DMSO for a compound stock solution of 1.0% w/v. Compound stock solutions were serial diluted with DMSO to 20, 10, and 2 ppm final well concentration. Fungi preparation: Botrytis cinerea spores were taken from 6-week-old cultures grown at 22 C on full strength potato dextrous agar (PDA) plates. Sclerotinia sclerotiorum, Pythium aphanidermatum, Rhizoctonia solani, and Monilinia laxa mycelia were taken from 4- to 10-day-old shake flask cultures grown at room temperature on full strength potato dextrous broth (PDB). Cercospora arachidicola mycelia were taken from 10- to 14-day-old shake flask cultures grown at room temperature on a full strength PDB amended with peanut oil. Mycosphaerella fijiensis mycelia were taken from 10- to 14-day-old shake flask cultures grown at room temperature on V8 juice broth. Sclerotinia sclerotiorum, Pythium aphanidermatum, Rhizoctonia solani, Cercospora arachidicola, and Mycosphaerella fijiensis mycelia (0.4 g mycelia) were blended for 45 seconds in 20 mL sterile de-ionized water. Monilinia laxa mycelia (1 g mycelia) was blended for 45 seconds in 30 mL of sterile de-ionized water. Botrytis cinerea spores were diluted with quarter strength PDB to 1×10^5 spores/mL final well concentration. All mycelia were diluted in water (1:5 mycelia:water) before distributing into the wells. Microtiter plate preparation: Compound solution (10:L), quarter strength PDB (900:L) and fungi preparation (100:L) were sequentially distributed into 48-well microtiter plates (n=3 replications/compound/rate). A blank consisted of quarter strength PDB and fungi preparation. Commercial fungicide controls (100 ppm diluted with water) consisted of Scala for Botrytis cinerea, Dithane F-45 for Mycosphaerella fijiensis, and Benlate for Sclerotinia sclerotiorum, Pythium aphanidermatum, Rhizoctonia solani, Cercospora arachidicola, and Monilinia laxa. Plates were shaken in a circular rotator at room temperature for 20 minutes, then incubated at 25C for 24 to 72 hours, depending on the pathogen. Fungal control ratings: Fungal growth in wells containing the compounds were compared to the positive control and fungal inhibition was rated as full, partial, or none. Final readings were the average of the three wells (Table 1).

[3] = system: Phaseolus vulgaris (Bush bean cv. Blue Lake 274) leaves; experiment: Detached bean leaf bioassay, phytotoxicity rating; assay type: in vivo
Experimental: Detached Bean Leaf Bioassay Compound solution: Compound solutions were prepared by diluting compound stock solutions (1.0% w/v compound in DMSO) to 200 ppm with 0.01% w/v Triton X-100. Plant material: Middle trifoliate leaves of greenhouse grown Phaseolus vulgaris (Bush bean cv. Blue Lake 274) were excised and placed on a plastic grid above a tray containing moist towels. Treatment method: One half of the adaxial surface of the leaf was treated with the compound solution (100:L) using a 3 cm Bacti Cell Spreader. A blank consisted of 0.01% w/v Triton X-100. A commercial fungicide control (200 ppm diluted with water) consisted of Scala. After the solutions dried, the trays containing the leaves were covered and held one day in a growth chamber (22 C). The adaxial surfaces of the leaves were then inoculated with 5–60:L droplets of Botrytis cinerea spore solution. Phytotoxicity ratings: Phytotoxicity was rated as 0=no phytotoxicity, 1=slight phytotoxicity, 2=moderate phytotoxicity, or 3=excessive phytotoxicity (Table 2).

Compound | Botrytis cinerea control (200 ppm) (Botrytis cinerea [1]) [%] | Control of fungi (full, partial, none) (Monilinia laxa; fungicide rate 2 ppm) | Control of fungi (full, partial, none) (Monilinia laxa; fungicide rate 10 ppm) | Control of fungi (full, partial, none) (Monilinia laxa; fungicide rate 20 ppm) | Control of fungi (full, partial, none) (Pythium aphanidermatum; fungicide rate 2 ppm) | Control of fungi (full, partial, none) (Pythium aphanidermatum; fungicide rate 10 ppm) | Control of fungi (full, partial, none) (Pythium aphanidermatum; fungicide rate 20 ppm) | Control of fungi (full, partial, none) (Mycosphaerella fijiensis; fungicide rate 2 ppm) | Control of fungi (full, partial, none) (Mycosphaerella fijiensis; fungicide rate 10 ppm) | Control of fungi (full, partial, none) (Mycosphaerella fijiensis; fungicide rate 20 ppm) | Control of fungi (full, partial, none) (Rhizoctonia solani; fungicide rate 2 ppm) | Control of fungi (full, partial, none) (Rhizoctonia solani; fungicide rate 10 ppm) | Control of fungi (full, partial, none) (Rhizoctonia solani; fungicide rate 20 ppm) | Control of fungi (full, partial, none) (Cercospora arachidicola; fungicide rate 2 ppm) | Control of fungi (full, partial, none) (Cercospora arachidicola; fungicide rate 10 ppm) | Control of fungi (full, partial, none) (Cercospora arachidicola; fungicide rate 20 ppm) | Control of fungi (full, partial, none) (Botrytis cinerea [2]; fungicide rate 2 ppm) | Control of fungi (full, partial, none) (Botrytis cinerea [2]; fungicide rate 10 ppm) | Control of fungi (full, partial, none) (Botrytis cinerea [2]; fungicide rate 20 ppm) | Control of fungi (full, partial, none) (Sclerotinia sclerotiorum; fungicide rate 2 ppm) | also measured
O=[N+]([O-])c1ccc(O)c(-c2ccc(C(F)(F)F)cc2)c1 [X = CF3] | 100 | Full | Full | Full | Full | Full | Full | Full | Full | Full | Partial | Full | Full | Full | Full | Full | Full | Full | Full | Full | Control of fungi (full, partial, none) (Sclerotinia sclerotiorum; fungicide rate 10 ppm): Full; Control of fungi (full, partial, none) (Sclerotinia sclerotiorum; fungicide rate 20 ppm): Full; Phytotoxity (200 ppm) [3]: Moderate
O=[N+]([O-])c1ccc(O)c(-c2ccc(Cl)cc2)c1 [X = Cl] | 97 | Full | Full | Full | Full | Full | Full | Full | Full | Full | Full | Full | Full | Full | Full | Full | Full | Full | Full | Full | Control of fungi (full, partial, none) (Sclerotinia sclerotiorum; fungicide rate 10 ppm): Full; Control of fungi (full, partial, none) (Sclerotinia sclerotiorum; fungicide rate 20 ppm): Full; Phytotoxity (200 ppm) [3]: Moderate
O=[N+]([O-])c1ccc(O)c(-c2ccc(F)cc2)c1 [X = F] | 31 | Partial | Full | Full | Partial | Full | Full | Full | Full | Full | None | Full | Full | Full | Full | Full | Partial | Full | Full | Full | Control of fungi (full, partial, none) (Sclerotinia sclerotiorum; fungicide rate 10 ppm): Full; Control of fungi (full, partial, none) (Sclerotinia sclerotiorum; fungicide rate 20 ppm): Full; Phytotoxity (200 ppm) [3]: None

— patent publication US6992111B2, “Fungicide” (Valent BioSciences Corporation, priority 2003, dated 2006)
